Each compound was assayed against GST-hRIPK1 (8-327) (Homo sapiens (Human), UniProt Q13546) (assay: Fluorescent Polarization Binding (FP Binding) assay, RIPK1). Details: 10 nM GST-hRIPK1 (8-327), 5 nM fluorescent-labeled ligand, RT, 30 min, mean of at least two independent experiments.
In short: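 Binding by fluorescence polarisation at RT: 10 nM baculovirus-expressed GST-hRIPK1 (8-327) and 5 nM fluorescent ligand, 30 min, in 50 mM HEPES pH 7.5, 50 mM MgCl2, 0.02% CHAPS, 1% DMSO. FP read at ex 531/em 595 nm. IC50 from normalised percent inhibition, mean of ≥2 experiments.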

Chain of GST-hRIPK1 (8-327) (Q13546 8-327): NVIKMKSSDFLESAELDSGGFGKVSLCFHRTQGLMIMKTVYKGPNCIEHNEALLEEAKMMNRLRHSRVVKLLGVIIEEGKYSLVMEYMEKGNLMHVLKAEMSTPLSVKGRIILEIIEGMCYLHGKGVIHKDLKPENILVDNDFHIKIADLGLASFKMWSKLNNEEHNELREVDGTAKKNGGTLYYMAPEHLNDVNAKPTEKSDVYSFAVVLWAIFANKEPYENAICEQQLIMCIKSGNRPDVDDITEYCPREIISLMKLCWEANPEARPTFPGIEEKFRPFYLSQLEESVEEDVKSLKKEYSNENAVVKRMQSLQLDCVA

First: CC(CC(F)(F)F)C(=O)N1CCOc2c(C#N)cncc2C1 (stereo not shown) [Example 141, 4-(4,4,4-trifluoro-2-methyl-butanoyl)-3,5-dihydro-2H-pyrido[3,4-f][1,4]oxazepine-9-carbonitrile]
Second: CC(C)(CC(F)(F)F)C(=O)N1CCOc2c(C#N)cncc2C1 [Example 47, 4-(4,4,4-trifluoro-2,2-dimethyl-butanoyl)-3,5-dihydro-2H-pyrido[3,4-f][1,4]oxazepine-9-carbonitrile]
The IC50 of the first is higher: 100 to 1000 nM for the first, 0.1 to 100 nM for the second. The second is the more potent here.

First: CC(C)(C(=O)N1CCOc2ccccc2C1)C(F)F [Example 7, 1-(3,5-dihydro-2H-1,4-benzoxazepin-4-yl)-3,3-difluoro-2,2-dimethyl-propan-1-one]
Second: CC(C)(C(=O)N1CCOc2ccncc2C1)C(F)F [Example 35, 1-(2,3-dihydropyrido[3,4-f][1,4]oxazepin-4(5H)-yl)-3,3-difluoro-2,2-dimethylpropan-1-one]
The IC50 of the first is lower: 0.1 to 100 nM for the first, 100 to 1000 nM for the second.

`COC1(C(=O)N2CCOc3c(F)cncc3C2)CCN(c2ncc(F)c(OCC(F)F)n2)CC1` [Example 132, (1-(4-(2,2-difluoroethoxy)-5-fluoropyrimidin-2-yl)-4-methoxypiperidin-4-yl)(9-fluoro-2,3-dihydropyrido[3,4-f][1,4]oxazepin-4(5H)-yl)methanone] and `COc1nc(N2CCC(F)(C(=O)N3CCOc4c(C#N)cncc4C3)CC2)ncc1F` [Example 191, 4-[4-fluoro-1-(5-fluoro-4-methoxy-pyrimidin-2-yl)piperidine-4-carbonyl]-3,5-dihydro-2H-pyrido[3,4-f][1,4]oxazepine-9-carbonitrile] fall in the same range of IC50: 0.1 to 100 nM for the first, 0.1 to 100 nM for the second.

`CC(C)(CC#N)C(=O)N1CCOc2c(F)cncc2C1` [Example 70, 4-(9-fluoro-2,3-dihydropyrido[3,4-f][1,4]oxazepin-4(5H)-yl)-3,3-dimethyl-4-oxobutanenitrile] and `CCC1(C(=O)N2CCOc3c(C#N)cncc3C2)CC1` [Example 63, 4-(1-ethylcyclopropanecarbonyl)-3,5-dihydro-2H-pyrido[3,4-f][1,4]oxazepine-9-carbonitrile] fall in the same range of IC50: 100 to 1000 nM for the first, 100 to 1000 nM for the second.

`CC(C)(C(=O)N1Cc2ccccc2CCO1)C(F)F` [Example 38, 3,3-difluoro-2,2-dimethyl-1-(1,2,4,5-tetrahydro-3,2-benzoxazepin-2-yl)propan-1-one] and `CC(C)(C(=O)N1CCOc2cccc(C#N)c2C1)C(F)F` [Example 27, 4-(3,3-difluoro-2,2-dimethyl-propanoyl)-3,5-dihydro-2H-1,4-benzoxazepine-6-carbonitrile] cannot be ordered by IC50: greater than 1000 nM for the first, greater than 1000 nM for the second.

`COC1(C(=O)N2CCOc3c(C#N)cncc3C2)CCN(c2ncc(F)cn2)CC1` [Example 185, 4-[1-(5-fluoropyrimidin-2-yl)-4-methoxy-piperidine-4-carbonyl]-3,5-dihydro-2H-pyrido[3,4-f][1,4]oxazepine-9-carbonitrile] and `N#Cc1cncc2c1OCCN(C(=O)C1(F)CCN(c3ccc(F)cn3)CC1)C2` [Example 188, 4-[4-fluoro-1-(5-fluoro-2-pyridyl)piperidine-4-carbonyl]-3,5-dihydro-2H-pyrido[3,4-f][1,4]oxazepine-9-carbonitrile] fall in the same range of IC50: 0.1 to 100 nM for the first, 0.1 to 100 nM for the second.

First: COc1cnc(Cl)nc1N1CCC(F)(C(=O)N2CCOc3c(C#N)cncc3C2)CC1 [Example 186, 4-[1-(2-chloro-5-methoxy-pyrimidin-4-yl)-4-fluoro-piperidine-4-carbonyl]-3,5-dihydro-2H-pyrido[3,4-f][1,4]oxazepine-9-carbonitrile]
Second: N#Cc1cncc2c1OCCN(C(=O)C1(F)CCN(c3cnccn3)CC1)C2 [Example 87, 4-(4-fluoro-1-pyrazin-2-yl-piperidine-4-carbonyl)-3,5-dihydro-2H-pyrido[3,4-f][1,4]oxazepine-9-carbonitrile]
The IC50 of the first is higher: greater than 1000 nM for the first, 100 to 1000 nM for the second. The second is the more potent here.

Compared with `CCC(C)(C)C(=O)N1CCOc2ccc(F)cc2C1` [Example 32, 1-(7-fluoro-2,3,4,5-tetrahydro-1,4-benzoxazepin-4-yl)-2,2-dimethylbutan-1-one], `Cc1ocnc1C(=O)N1CCC(F)(C(=O)N2CCOc3c(C#N)cncc3C2)CC1` [Example 173, 4-[4-fluoro-1-(5-methyloxazole-4-carbonyl)piperidine-4-carbonyl]-3,5-dihydro-2H-pyrido[3,4-f][1,4]oxazepine-9-carbonitrile] is higher in IC50: 0.1 to 100 nM for the first, 100 to 1000 nM for the second.

Same assay, conditions: GST-hRIPK1 (8-327), mean of at least two independent experiments

First: O=C(C1CCN(c2ncc(F)cn2)CC1)N1CCCc2ccccc2C1 [Example 203, [1-(5-fluoropyrimidin-2-yl)-4-piperidyl]-(1,3,4,5-tetrahydro-2-benzazepin-2-yl)methanone]
Second: N#Cc1cncc2c1OCCN(C(=O)C1CCN(c3ncc(F)cn3)CC1F)C2 (single isomer, unassigned) [Example 306, 4-[3-Fluoro-1-(5-fluoropyrimidin-2-yl)piperidine-4-carbonyl]-3,5-dihydro-2H-pyrido[3,4-f][1,4]oxazepine-9-carbonitrile]
The IC50 of the first is higher: 100 to 1000 nM for the first, 0.1 to 100 nM for the second.

First: CC(C)(C(=O)N1CCOc2c(C#N)cncc2C1)C1CC(n2nccn2)C1 (stereo not shown) [Example 275, 4-[2-Methyl-2-[3-(triazol-2-yl)cyclobutyl]propanoyl]-3,5-dihydro-2H-pyrido[3,4-f][1,4]oxazepine-9-carbonitrile]
Second: CC(C)(C(=O)N1CCOc2c(C#N)cncc2C1)C1CC(Cl)C1 (stereo not shown) [Example 278, 4-[2-(3-chlorocyclobutyl)-2-methyl-propanoyl]-3,5-dihydro-2H-pyrido[3,4-f][1,4]oxazepine-9-carbonitrile]
The IC50 of the first is higher: 100 to 1000 nM for the first, 0.1 to 100 nM for the second. The second is the more potent here.

`COC1(C(=O)N2CCOc3c(C#N)cncc3C2)CCN(c2ncccn2)CC1` [Example 239, 4-(4-methoxy-1-pyrimidin-2-yl-piperidine-4-carbonyl)-3,5-dihydro-2H-pyrido[3,4-f][1,4]oxazepine-9-carbonitrile] and `N#Cc1cncc2c1OCCN(C(=O)C1(F)CCN(c3ncc(F)n4ncnc34)CC1)C2` [Example 294, 4-[4-fluoro-1-(5-fluoro-[1,2,4]triazolo[1,5-a]pyrazin-8-yl)piperidine-4-carbonyl]-3,5-dihydro-2H-pyrido [3,4-f][1,4]oxazepine-9-carbonitrile] fall in the same range of IC50: 0.1 to 100 nM for the first, 0.1 to 100 nM for the second.

First: Cn1nccc(N2CCC(C(=O)N3CCOc4c(C#N)cncc4C3)[C@@H](F)C2)c1=O (stereo partly drawn) [Example 224, 4-[(3,4)-trans-3-fluoro-1-(2-methyl-3-oxo-pyridazin-4-yl)piperidine-4-carbonyl]-3,5-dihydro-2H-pyrido[3,4-f][1,4]oxazepine-9-carbonitrile]
Second: N#Cc1cncc2c1OCCN(C(=O)C1CCN(c3nccc4ncnn34)C[C@@H]1F)C2 (stereo partly drawn) [Example 250, 4-[(3,4)-trans-3-fluoro-1-([1,2,4]triazolo[1,5-c]pyrimidin-5-yl)piperidine-4-carbonyl]-3,5-dihydro-2H-pyrido[3,4-f][1,4]oxazepine-9-carbonitrile]
The IC50 of the first is higher: greater than 1000 nM for the first, 100 to 1000 nM for the second.

Compared with `CC1(C(=O)N2CCOc3c(C#N)cncc3C2)CCN(c2ncc(F)cn2)CC1(F)F` (single isomer, unassigned) [Example 285, 4-[-3,3-Difluoro-1-(5-fluoropyrimidin-2-yl)-4-methyl-piperidine-4-carbonyl]-3,5-dihydro-2H-pyrido[3,4-f][1,4]oxazepine-9-carbonitrile], `CC1(C(=O)N2CCOc3c(C#N)cncc3C2)CCN(c2ncc(Cl)cn2)CC1(F)F` (stereo not shown) [Example 215, 4-(1-(5-chloropyrimidin-2-yl)-3,3-difluoro-4-methylpiperidine-4-carbonyl)-2,3,4,5-tetrahydropyrido[3,4-f][1,4]oxazepine-9-carbonitrile] is lower in IC50: 100 to 1000 nM for the first, 0.1 to 100 nM for the second. The second is the more potent here.

First: CC(C)(C(=O)N1CCOc2c(C#N)cncc2C1)C1CC1COC(F)(F)F (stereo not shown) [Example 274, 4-(2-Methyl-2-(2-((trifluoromethoxy)methyl)cyclopropyl)propanoyl)-2,3,4,5-tetrahydropyrido[3,4-f][1,4]oxazepine-9-carbonitrile]
Second: CC(C(=O)N1CCOc2c(C#N)cncc2C1)(C(F)F)C1CC1 (single isomer, unassigned) [Example 258, 4-(2-Cyclopropyl-3,3-difluoro-2-methyl-propanoyl)-3,5-dihydro-2H-pyrido[3,4-f][1,4]oxazepine-9-carbonitrile]
The IC50 of the first is higher: greater than 1000 nM for the first, 0.1 to 100 nM for the second.

`N#Cc1cncc2c1OCCN(C(=O)C1CCN(c3ccnc4c(F)cnn34)CC1F)C2` (single isomer, unassigned) [Example 303, 4-[3-Fluoro-1-(3-fluoropyrazolo[1,5-a]pyrimidin-7-yl)piperidine-4-carbonyl]-3,5-dihydro-2H-pyrido[3,4-f][1,4]oxazepine-9-carbonitrile] and `O=C(C1CCN(c2nccc3ncnn23)C[C@@H]1F)N1CCOc2c(F)cncc2C1` (stereo partly shown) [Example 255] fall in the same range of IC50: 100 to 1000 nM for the first, 100 to 1000 nM for the second.

First: CCC(C)(CC#N)C(=O)N1CCOc2c(C#N)cncc2C1 (single isomer, unassigned) [Example 264, 4-[2-(Cyanomethyl)-2-methyl-butanoyl]-3,5-dihydro-2H-pyrido[3,4-f][1,4]oxazepine-9-carbonitrile]
Second: N#Cc1cncc2c1OCCN(C(=O)C1CCN(c3ncc(F)cn3)CC1(F)F)C2 (single isomer, unassigned) [Example 307, 4-[3,3-Difluoro-1-(5-fluoropyrimidin-2-yl)piperidine-4-carbonyl]-3,5-dihydro-2H-pyrido[3,4-f][1,4]oxazepine-9-carbonitrile]
The IC50 of the first is lower: 0.1 to 100 nM for the first, 100 to 1000 nM for the second.

`N#Cc1cncc2c1OCCN(C(=O)C1CCN(c3ccnc4ccnn34)CC1(F)F)C2` (stereo not shown) [Example 221, 4-(3,3-difluoro-1-pyrazolo[1,5-a]pyrimidin-7-yl-piperidine-4-carbonyl)-3,5-dihydro-2H-pyrido[3,4-f][1,4]oxazepine-9-carbonitrile] and `O=C(C1CCN(c2ccnc3ccnn23)CC1(F)F)N1CCOc2c(F)cncc2C1` (stereo not shown) [Example 252, (3,3-difluoro-1-pyrazolo[1,5-a]pyrimidin-7-yl-4-piperidyl)-(9-fluoro-3,5-dihydro-2H-pyrido[3,4-f][1,4]oxazepin-4-yl)methanone] fall in the same range of IC50: 100 to 1000 nM for the first, 100 to 1000 nM for the second.

Reference: patent US11203600B2 (Denali Therapeutics Inc., priority 2017, dated 2021)
